Assay results: patent publication US20250041311A1, “Compound For Treating or Preventing Vimentin-Mediated Diseases” (Aluda Pharmaceuticals, Inc., priority 2021, published 2025)
“Also recorded” adds a separate entry of the source.

How the values were obtained:
[1] = tested on: Huh7-NC12 cells; experiment: Exosome release from liver cancer cells (luciferase exosome reporter, ExoHTP platform); type: cell-based; settings: 48 h, luciferase activity of exosomes purified from supernatant
[2] = tested on: Huh7-NC12 cells; experiment: PrestoBlue cell viability of liver cancer cells; settings: for cytotoxicity: 48 h, highest concentration 10,000 nM, high concentrations 3,160 and 10,000 nM; for survival rate: after two days of treatment; for toxicity to Huh7-NC12 cells: high concentrations (>3160 nM)
[3] = molecular target: T1, GFAP (Homo sapiens, UniProt P14136); experiment: Immunofluorescence microscopy of the GFAP network (specificity control); type: cell-based; settings: U87 glioma cells treated with C50
T1 construct: endogenous in cells; host or cells: U87 human glioma cells

[4] = molecular target: T2, vimentin (Homo sapiens, UniProt P08670); experiment: Fluorescence recovery after photobleaching (FRAP) of GFP-vimentin in U87 cells; type: cell-based; design: expressed in transfected cells; host or cells: U87 human glioma cells, transient transfection; settings: cells treated with C50 for 24 h, vs DMSO
Description: (§1) Cell culture: Human cancer cell lines were obtained from the Institute of Cell Research, Chinese Academy of Sciences or ATCC. Cells were cultured in an incubator with 5% CO2 in RMPI1640 supplemented with 10% fetal bovine serum, 2 mM L-glutamine and 1× penicillin-streptomycin (100 IU/ml-100 μg/ml).
Fluorescence recovery after photobleaching (FRAP): Cells were cultured on 4-well coverslips and transiently transfected with pEGFP-Vim expression vector using Lipofectamine 2000 (Invitrogen) following the manufacturer's instructions. Twenty-four h after transfection, cells were treated with DMSO or C50 for 24 h. FRAP experiments were performed using a confocal microscope system (Fluoview 1,000; Olympus). For photobleaching, the region of interest (ROI) was irradiated with 60% laser power (488 nm) for 2 s. Images were taken every 30 s for 5 min to monitor fluorescence recovery. Fluorescence intensities were corrected for sample background at each time point. After data collection, the fluorescence intensity of ROI was extracted by ImageJ software.
Target sequence in this assay (P08670 whole entry, species assumed): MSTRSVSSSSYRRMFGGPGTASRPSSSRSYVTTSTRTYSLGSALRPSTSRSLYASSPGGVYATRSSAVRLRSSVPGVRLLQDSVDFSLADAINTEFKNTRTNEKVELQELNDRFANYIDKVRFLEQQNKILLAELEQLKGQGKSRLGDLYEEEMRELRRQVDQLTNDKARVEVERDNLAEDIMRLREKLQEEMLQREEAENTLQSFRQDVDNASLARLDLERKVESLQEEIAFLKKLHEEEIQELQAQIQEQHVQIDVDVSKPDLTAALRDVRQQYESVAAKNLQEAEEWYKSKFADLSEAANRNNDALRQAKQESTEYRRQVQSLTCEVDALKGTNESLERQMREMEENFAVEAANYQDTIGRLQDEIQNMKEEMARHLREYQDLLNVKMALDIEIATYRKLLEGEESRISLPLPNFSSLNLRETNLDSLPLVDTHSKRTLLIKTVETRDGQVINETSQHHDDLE

[5] = molecular target: T2, vimentin; experiment: Immunofluorescence microscopy of the vimentin intermediate filament network; type: cell-based; design: react with mouse anti-VIM antibody (Sigma, 1:200) at room temperature; endogenous in cells; host or cells: U87 human glioma cells; settings: U87 cells treated with C50 for 24 h, confocal immunofluorescence
Description: as §1
Target sequence in this assay (P08670 2-466 limits assumed): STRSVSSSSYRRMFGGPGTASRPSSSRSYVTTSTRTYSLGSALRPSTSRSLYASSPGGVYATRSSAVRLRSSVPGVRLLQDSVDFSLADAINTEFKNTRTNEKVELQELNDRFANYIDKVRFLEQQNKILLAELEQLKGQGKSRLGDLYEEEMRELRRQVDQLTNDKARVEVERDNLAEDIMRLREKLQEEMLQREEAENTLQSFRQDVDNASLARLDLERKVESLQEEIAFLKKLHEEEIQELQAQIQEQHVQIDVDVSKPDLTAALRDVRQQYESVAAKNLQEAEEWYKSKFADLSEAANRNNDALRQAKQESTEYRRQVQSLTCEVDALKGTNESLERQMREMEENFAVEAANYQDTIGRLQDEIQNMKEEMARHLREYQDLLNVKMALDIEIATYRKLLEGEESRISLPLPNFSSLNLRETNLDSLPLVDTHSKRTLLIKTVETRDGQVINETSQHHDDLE
Immunofluorescence microscopy: Cells were cultured in 4-well coverslips, treated with DMSO or C50 for 24 h, fixed with 2% paraformaldehyde at 37° C. for 15 minutes, permeabilized in 0.2% Triton X-100 PBS at room temperature Wash for 15 min, wash 3 times with 0.05% Triton X-100 TBS, block with 10% normal goat serum in 0.05% Triton X-100 TBS, then react with mouse anti-VIM antibody (Sigma, 1:200) at room temperature Incubate for 3 h. Cells were washed 3 times with 0.05% Triton X-100 in PBS, and then incubated with Cy TM3-conjugated anti-mouse IgG antibody (Jackson, 1:300) for 1 h at room temperature. Nuclei were stained with DAPI for 5-10 min. Immunofluorescence was observed using a FV1000 (Olympus) confocal microscope.

[6] = tested on: EAE mice; experiment: MOG-induced experimental autoimmune encephalomyelitis (EAE) mouse model; type: in vivo; settings: FTY720 1 mg/kg, oral once a day, vs vehicle

T1 sequence (P14136 whole entry): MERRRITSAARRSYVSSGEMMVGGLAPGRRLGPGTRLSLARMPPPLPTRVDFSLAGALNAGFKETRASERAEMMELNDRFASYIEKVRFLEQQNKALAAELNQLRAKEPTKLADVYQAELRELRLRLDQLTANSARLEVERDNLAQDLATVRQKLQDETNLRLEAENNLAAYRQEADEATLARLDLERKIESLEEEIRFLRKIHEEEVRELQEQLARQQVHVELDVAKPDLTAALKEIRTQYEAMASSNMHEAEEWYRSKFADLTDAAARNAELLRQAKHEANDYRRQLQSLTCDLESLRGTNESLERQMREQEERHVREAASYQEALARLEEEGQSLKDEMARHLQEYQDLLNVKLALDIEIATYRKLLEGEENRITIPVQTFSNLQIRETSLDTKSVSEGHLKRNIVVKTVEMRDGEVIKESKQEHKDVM

SMILES	inhibition of exosome release [1]	cytotoxicity [2]	survival rate [2]	toxicity to Huh7-NC12 cells [2]	also measured
O=C(Nc1ccc(F)cc1)Nc1ccc(Nc2nc(/C=C/c3ccc(Cl)cc3)nc(N3CCOCC3)n2)cc1 [Compound C45]	stronger inhibitory effects than GW4869; also recorded: effectively inhibit the release of exosomes	not cytotoxic	about 90%	not toxic	–
O=C(Nc1ccc(Cl)cc1)Nc1ccc(Nc2nc(/C=C/c3ccccc3)nc(N3CCOCC3)n2)cc1 [Compound C50]	–	–	–	–	structural changes of GFAP intermediate filament protein [3]: no structural changes; time required to recover fluorescence in the photobleached region [4]: significantly delayed; reorganization of the vimentin network [5]: significant reorganization of the vimentin network
O=C(Nc1ccc(Nc2nc(/C=C/c3ccccc3)nc(N3CCOCC3)n2)cc1)Nc1ccnc(Cl)c1 [Compound C52M]	effectively inhibit the release of exosomes	cytotoxic	–	cytotoxic	–
O=C(Nc1ccc(Nc2nc(/C=C/c3ccccc3)nc(N3CCOCC3)n2)cc1)Nc1ccc(C(=O)O)cc1 [Compound C69A]	stronger inhibitory effects than GW4869; also recorded: effectively inhibit the release of exosomes	not cytotoxic	about 90%	not toxic	–
CN1CCN(C(=O)c2ccc(NC(=O)Nc3ccc(Nc4nc(/C=C/c5ccccc5)nc(N5CCOCC5)n4)cc3)cc2)CC1 [Compound C69B]	effectively inhibit the release of exosomes	cytotoxic	–	cytotoxic	–
CCCCCCCCc1ccc(CCC(N)(CO)CO)cc1 [FTY720, reference compound]	–	–	–	–	animal weight loss [6]: reduced; clinical disease scores [6]: improved
O=C(/C=C/c1ccc(/C=C/C(=O)Nc2ccc(C3=NCCN3)cc2)cc1)Nc1ccc(C2=NCCN2)cc1 [GW4869, reference compound]	–	not cytotoxic	about 90%	–	–
